We go through 44 compounds from patent US5776742A, “Aldehyde dehydrogenase enzyme” (Roche Vitamins Inc., priority 1996, dated 1998).

Where “and” joins values, the source holds several entries; their conditions need not be identical. Equal entries are not always repeated. Entries after “also recorded” stand apart in the source; their conditions may differ. Where two headings read alike, the source gives them in different places.

The target in test [1] is T1, aldehyde dehydrogenase (ADH) (Ketogulonicigenium vulgare, UniProt F9Y7W8).
T1 sequence (F9Y7W8 1-429): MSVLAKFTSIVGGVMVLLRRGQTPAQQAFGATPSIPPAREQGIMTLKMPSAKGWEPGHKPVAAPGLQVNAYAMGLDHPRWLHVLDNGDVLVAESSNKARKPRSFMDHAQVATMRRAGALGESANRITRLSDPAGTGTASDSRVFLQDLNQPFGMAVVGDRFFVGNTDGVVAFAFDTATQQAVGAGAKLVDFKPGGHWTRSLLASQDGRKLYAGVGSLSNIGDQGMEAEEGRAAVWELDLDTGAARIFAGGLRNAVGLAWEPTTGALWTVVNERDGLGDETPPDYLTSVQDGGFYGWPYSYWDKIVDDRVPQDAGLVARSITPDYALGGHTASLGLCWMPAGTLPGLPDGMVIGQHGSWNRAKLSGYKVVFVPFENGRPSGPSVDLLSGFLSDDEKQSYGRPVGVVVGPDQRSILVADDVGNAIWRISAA
As to the kind of experiment: Effects of metal ions, enzyme inhibitors and PQQ on the activity of ADH. Type of test: biochemical, Gluconobacter oxydans DSM 4025 (FERM BP-3812). The settings on record: for inhibition at 1870 µM: read-out: inhibition of the activity.

Test [2] has as its target T1, aldehyde dehydrogenase (ADH). As to the kind of experiment: Substrate specificity of the ADH. The settings on record: for activity at 100000 µM: read-out: Relative activity (%).
The target is the same in test [3]. As to the kind of experiment: Electron acceptor suitability for L-sorbosone oxidation. Type of test: biochemical, Gluconobacter oxydans DSM 4025 (FERM BP-3812). Conditions: oxidation of L-sorbosone to 2-keto-L-gulonic acid.
Where [4] appears, read: read-out: Relative activity (%).
Setting [5] is: compound 0.950 mM, None = 100, read-out: Relative activity (%).
Setting [6] is: compound 1.870 mM, None = 100, read-out: Relative activity (%).

In the case of `[Cl-].[Cl-].[Zn+2]` [ZnCl2], the “Relative activity (%)” value in test [1] (metal 0.19 mM, None = 100) is on record as 36.1%; in test [1] (metal 0.374 mM, None = 100), 21.1%.
Turning to `O.O.O.O.O.O.O.O=[As]([O-])([O-])O.[Na+].[Na+]` [Na2 HAsO4.7H2 O, reference compound], the “Relative activity (%)” value came out at 100% in test [1] (compound 0.950 mM, None = 100) and 107.1% in test [1] (compound 1.870 mM, None = 100).
As for `[Ca+2]` [Ca^2+], the “effect on the enzyme activity (in words)” value in test [1] is “Stimulator”.
On to `O.O.O.O.O.O.O=S(=O)([O-])[O-].[Ni+2]` [NiSO4.6H2 O], for which, in test [1] (metal 0.375 mM, None = 100), the “Relative activity (%)” value was determined as 17.6%.
On to `O.O.O.O.O.O.O.O=S(=O)([O-])[O-].[Cu+2]` [CuSO4.7H2 O], for which the “Relative activity (%)” value in test [1] (metal 0.19 mM, None = 100) is given as 100%; in test [1] (metal 0.374 mM, None = 100), 61.9%.
As for `[F-].[Na+]` [Sodium fluoride, reference compound], the “Relative activity (%)” value in test [1] is 100% and 105.8%.
As for `[Ni+2]` [Ni^2+], the “effect on the enzyme activity (in words)” value in test [1] is “inhibited; also recorded: Inhibition”.
Regarding `O=C(O)CN(CCN(CC(=O)O)CC(=O)O)CC(=O)O` [EDTA, ethylenediamine tetraacetic acid, reference compound], in test [1], the “effect on the enzyme activity (in words)” value is recorded as “strongly inhibited; also recorded: Inhibition”. For the same compound, in test [1] (setting [4]), the activity at 194 µM was 3.8%, the activity at 480 µM worked out at 2.6% and the activity at 980 µM worked out at 1.6%.
For `CCCO` [n-Propanol], in test [2], the activity at 100000 µM came out at 0%.
For the compound `O=C(O)CF` [Sodium fluoroacetate, reference compound], the activity at 950 µM in test [1] (setting [5]) was determined as 118%. For the same compound, the activity at 1870 µM in test [1] (setting [6]) came to 127%.
In the case of `O=C1C(Cl)=CC(=Nc2ccc(O)cc2)C=C1Cl`, the “suitability as electron acceptor (in words)” value (“suitability” for short) in test [3] was “oxidizes L-sorbosone to 2-keto-L-gulonic acid in the presence of electron acceptors”.
For `[Zn+2]` [Zn^2+], the “effect on the enzyme activity (in words)” value in test [1] was “inhibited; also recorded: Inhibition”.
Take `NC(=O)c1ccc[n+]([C@@H]2O[C@H](COP(=O)([O-])OP(=O)(O)OC[C@H]3O[C@@H](n4cnc5c(N)ncnc54)[C@H](O)[C@@H]3O)[C@@H](O)[C@H]2O)c1` [nicotine amide adenine dinucleotide]: the “suitability” value in test [3] is “not suitable”.
`CC(C)O` [iso-Propanol]: the activity at 100000 µM in test [2] worked out at 0%.
On the same count and under the same terms, then `O=C(CO)[C@@H](O)[C@H](O)[C@H](O)CO` [D-Fructose], with 0%.
Consider `O.O.O.O.O=[N+]([O-])[O-].O=[N+]([O-])[O-].[Ca+2]` [Ca(NO3)2.4H2 O], for which the “Relative activity (%)” value in test [1] (metal 0.0387 mM, None = 100) turned out to be 294%; in test [1] (metal 0.19 mM, None = 100), 450%.
For the compound `[Na+].[Na+].[O]=[Mo](=[O])([O-])[O-]` [Mo^6+], in test [1], the “effect on the enzyme activity (in words)” value is on record as “inhibited”.
As to `O=C[C@H](O)[C@H](O)[C@H](O)CO` [D-Ribose], the activity at 100000 µM in test [2] came out at 33.3%.
Consider `[Ca+2].[Cl-].[Cl-]` [CaCl2], for which, in test [1] (metal 0.0387 mM, None = 100), the “Relative activity (%)” value is recorded as 337%.
With `O.O=S(=O)([O-])[O-].O=S(=O)([O-])[O-].O=S(=O)([O-])[O-].[Fe+3].[Fe+3]` [Fe2 (SO4)3.nH2 O], the “Relative activity (%)” value in test [1] (metal 0.0387 mM, None = 100) is recorded as 100%; in test [1] (metal 0.228 mM, None = 100) it was 64.0%; in test [1] (metal 0.374 mM, None = 100), 44.9%; in test [1] (metal 0.41 mM, None = 100) it was 30.4%.
For the compound `CCN1C(=O)C=CC1=O` [N-Ethylmaleimide, reference compound], in test [1] (1.87 mM), the inhibition (commonly the relative decrease from the control value, in per cent) at 1870 µM was 24%. For the same compound, the activity at 950 µM in test [1] (setting [5]) was 94.1%. The activity at 1870 µM in test [1] (setting [6]) was found to be 76.5%.
Turning to `O=C(O)CI` [Monoiodoacetate, reference compound], in test [1] (setting [4]), the activity at 950 µM came to 93.7% and the activity at 1870 µM came out at 87.3%. Further, the inhibition at 1870 µM in test [1] amounted to 13%.
With `C=C[C@H]1C[N@@]2CC[C@H]1C[C@H]2[C@H](O)c1ccnc2ccc(OC)cc12` [Quinine, reference compound], the activity at 950 µM in test [1] (setting [5]) came to 118%. The activity at 1870 µM in test [1] (setting [6]) amounted to 112%.
For the compound `O=CC(=O)[C@@H](O)[C@H](O)[C@H](O)CO` [D-Glucosone], the activity at 100000 µM in test [2] came to 77.8%.
The same measure, in the same setting: next, `O=C[C@@H](O)[C@@H](O)[C@H](O)[C@H](O)CO` [D-Mannose]: 62.2%.
Regarding `C[n+]1c2ccccc2nc2ccccc21` [phenazine methosulfate], in test [3], the “suitability” value is given as “oxidizes L-sorbosone to 2-keto-L-gulonic acid in the presence of electron acceptors”.
Turning to `[Cl][Ti]([Cl])([Cl])[Cl]` [TiCl4], the “Relative activity (%)” value in test [1] (metal 0.19 mM, None = 100) was 100%; in test [1] (metal 0.374 mM, None = 100), 80%.
Take `OC[C@@H](O)[C@@H](O)[C@H](O)[C@@H](O)CO` [D-Sorbitol]: the activity at 100000 µM in test [2] was 0%.
Turning to `[Mg+2]` [Mg^2+], the “effect on the enzyme activity (in words)” value in test [1] was “inhibited”.
Regarding `[Fe+3]` [Fe^3+], the “effect on the enzyme activity (in words)” value in test [1] is “inhibited”.
Regarding `O.O.O.O.O.O.[Cl][Cu][Cl]` [CuCl2.6H2 O], the “Relative activity (%)” value in test [1] (metal 0.0387 mM, None = 100) was found to be 100%; in test [1] (metal 0.19 mM, None = 100) it was 50%; in test [1] (metal 0.374 mM, None = 100), 0%.
As for `O=C(CO)[C@@H](O)[C@H](O)[C@@H](O)CO` [L-Sorbose], the activity at 100000 µM in test [2] amounted to 0%.
On to `O=CC(O)CO` (racemic) [D,L-Glyceraldehyde], for which the activity at 100000 µM in test [2] amounted to 789%. Besides, the “relative activity, times higher than that for L-sorbosone” value in test [2] (substrate vs L-sorbosone) is on record as “about 8 times”.
Turning to `[Cu+2]` [Cu^2+], the “effect on the enzyme activity (in words)” value in test [1] is listed as “inhibited; also recorded: Inhibition”.
On to `O=CC(=O)[C@@H](O)[C@H](O)[C@@H](O)CO` [L-Sorbosone], for which, in test [2], the activity at 100000 µM was found to be 100%.
For cytochrome c, in test [3], the “suitability” value is on record as “oxidizes L-sorbosone to 2-keto-L-gulonic acid in the presence of electron acceptors”.
As to `O.O.[Na+].[Na+].[O]=[Mo](=[O])([O-])[O-]` [Na2 MoO4.2H2 O], the “Relative activity (%)” value is 69.7% in test [1] (metal 0.19 mM, None = 100) and 42.1% in test [1] (metal 0.374 mM, None = 100).
With `O=O` [oxygen], the “suitability” value in test [3] was “does not work; also recorded: not suitable”.
`[Ti+4]` [Ti^4+]: in test [1], the “effect on the enzyme activity (in words)” value is reported as “inhibited”.
In the case of `O.O.O.O.O.O.O.O=S(=O)([O-])[O-].[Zn+2]` [ZnSO4.7H2 O], in test [1] (metal 0.374 mM, None = 100), the “Relative activity (%)” value was 32.6%.
For the compound `O.O.O.O.O.O.O.O=S(=O)([O-])[O-].[Mg+2]` [MgSO4.7H2 O], the “Relative activity (%)” value in test [1] (metal 0.19 mM, None = 100) was 79.3%; in test [1] (metal 0.374 mM, None = 100), 39.9%.
On to `O=C[C@H](O)[C@@H](O)[C@H](O)[C@H](O)CO` [D-Glucose], for which, in test [2], the “relative activity, times higher than that for L-sorbosone” value is ~2 times and the activity at 100000 µM is 189%.
`O=C(O)c1cc(C(=O)O)c2c(n1)C(=O)C(=O)c1cc(C(=O)O)[nH]c1-2` [PQQ, pyrroloquinoline quinone, reference compound]: in test [1], the “effect on the enzyme activity (in words)” value is recorded as “Stimulator”. Besides, the activation at 10 µM in test [1] (0.01 mM, read-out: stimulation of the activity) was ~50%. The activity at 10 µM in test [1] (compound 0.01 mM, None = 100, read-out: Relative activity (%)) came out at 148%.
In the case of `NC(=O)c1ccc[n+]([C@@H]2O[C@H](COP(=O)([O-])OP(=O)(O)OC[C@H]3O[C@@H](n4cnc5c(N)ncnc54)[C@H](OP(=O)(O)O)[C@@H]3O)[C@@H](O)[C@H]2O)c1` [nicotine amide adenine dinucleotide phosphate], the “suitability” value in test [3] was “not suitable”.
